Read-outs that look alike come from different tables or passages of the source.
Columns and labels:
[1] = logP (neutral / acidic, pH 2.3)
Sphaerotheca fuliginea = assay: Sphaerotheca test (cucumber) / protective; assay type: in vivo; conditions: Podosphaera fuliginea, 168 h, read-out: efficacy
Protocol: Sphaerotheca Test (Cucumber)/Protective
Solvent: 49 parts by weight of N,N-dimethylformamide
Emulsifier: 1 part by weight of alkylaryl polyglycol ether
To produce a suitable preparation of active compound, 1 part by weight of active compound is mixed with the stated amounts of solvent and emulsifier, and the concentrate is diluted with water to the desired concentration.
To test for protective activity, young cucumber plants are sprayed with the active compound preparation at the stated application rate. 1 day after the treatment, the plants are inoculated with a spore suspension of Sphaerotheca fuliginea. The plants are then placed in a greenhouse at 70% relative atmospheric humidity and a temperature of 23° C.
Evaluation is carried out 7 days after the inoculation. 0% means an efficacy which corresponds to that of the control, whereas an efficacy of 100% means that no infection is observed.

[2] = cucumber, protective, 500 ppm active compound, evaluation 7 days after inoculation

logP [1] | logP ([1]; pH 2.3) | Compound | pest or weed control at 500 ppm (Sphaerotheca fuliginea) [%] | pest or weed control at 500 ppm (Sphaerotheca fuliginea; [2]) [%]
3.95 | 1.67 | CCN(C)C=Nc1cc(C)c(/C(C)=N/OCc2ccc(Cl)nc2)cc1C [Compound 32, N′-(4-{(1E)-N-[(6-chloropyridin-3-yl)methoxy]ethanimidoyl}-2,5-dimethylphenyl)-N-ethyl-N-methylimidoformamide] |  | ≥ 70
5.1 | 2.3 | CCN(C)C=Nc1cc(C)c(/C(C)=N/OCc2nc(-c3ccccc3)cs2)cc1C [Compound 21, N′-(2,5-dimethyl-4-{(1E)-N-[(4-phenyl-1,3-thiazol-2-yl)meth-oxy]ethanimidoyl}phenyl)-N-ethyl-N-methylimidoformamide] |  | ≥ 70
4.43 | 1.9 | CCCO/N=C(\C)c1cc(C)c(N=CN(C)CC)cc1C [Compound 37, N′-{4-[(1E)-N-(n-propoxy)ethanimidoyl]-2,5-dimethylphenyl}-N-ethyl-N-methylimidoformamide] |  | ≥ 70
4.41 | 1.76 | CCN(C)C=Nc1cc(C)c(/C=N/OC(C)C)cc1C [Compound 40, N-ethyl-N′-{4-[(E)-(isopropoxyimino)methyl]-2,5-dimethylphenyl}-N-methylimidoformamide] |  | ≥ 70

The remaining lines, values behind:

Compound | logP [1] | logP ([1]; pH 2.3) | pest or weed control at 500 ppm (Sphaerotheca fuliginea) [%] | pest or weed control at 500 ppm (Sphaerotheca fuliginea; [2]) [%]
CCN(C)C=Nc1cc(C)c(/C(C)=N/OCc2ccc(Cl)c(Cl)c2)cc1C [Compound 30, N′-(4-{(1E)-N-[(3,4-dichlorobenzyl)oxy]-ethanimidoyl}-2,5-dimethylphenyl)-N-ethyl-N-methylimidoformamide] | 5.79 | 2.71 | ≥ 70 | 
C#CC(C)O/N=C(\C)c1cc(C)c(N=CN(C)CC)cc1C (centres unmarked) [Compound 15, N′-(2,5-dimethyl-4-{(1E)-N-[(1-methylprop-2-yn-1-yl)oxy]ethanimidoyl}phenyl)-N-ethyl-N-methylimidoformamide] | 4 | 1.8 |  | ≥ 70
CCN(C)C=Nc1cc(C)c(/C(C)=N/OCc2ccc(C(C)(C)C)cc2)cc1C [Compound 12, N′-(4-{(1E)-N-[(4-tert-butylbenzyl)oxy]ethanimidoyl}-2,5-dimethylphenyl)-N-ethyl-N-methylimidoformamide] | 6.26 | 3.05 |  | ≥ 70
CC#CCO/N=C(\C)c1cc(C)c(N=CN(C)CC)cc1C [Compound 16, N′-{4-[(1E)-N-(but-2-yn-1-yloxy)ethanimidoyl]-2,5-dimethylphenyl}-N-ethyl-N-methylimidoformamide] | 3.91 | 1.72 | ≥ 70 | 
CCN(C)C=Nc1cc(C)c(/C(C)=N/OCC(F)(F)F)cc1C [Compound 17, N′-{2,5-dimethyl-4-[(1E)-N-(2,2,2-trifluoroethoxy)ethanimidoyl]phenyl}-N-ethyl-N-methylimidoformamide] | 4.24 | 1.88 |  | ≥ 70
CCN(C)C=Nc1cc(C)c(/C(C)=N/OC2CCCC2)cc1C [Compound 14, N′-{4-[(1E)-N-(cyclopentyloxy)ethanimidoyl]-2,5-dimethylphenyl}-N-ethyl-N-methylimidoformamide] | 5.24 | 2.2 |  | ≥ 70
CCN(C)C=Nc1cc(C)c(/C=N/OC(C)(C)C)cc1C [Compound 39, N′-{4-[(E)-(tert-butoxyimino)methyl]-2,5-dimethylphenyl}-N-ethyl-N-methylimidoformamide] | 4.98 | 2.11 | ≥ 70 | 
CCN(C)C=Nc1cc(C)c(/C=N/OCc2ccccc2)cc1C [Compound 3, N′-(4-{(E)-[(benzyloxy)imino]methyl}-2,5-di-methylphenyl)-N-ethyl-N-methylimidoformamide] |  | 2.02 |  | ≥ 70
CCN(C)C=Nc1cc(C)c(/C(C)=N/OCC=C(C)C)cc1C [Compound 33, N′-(2,5-dimethyl-4-{(1E)-N-[(3-methylbut-2-en-1-yl)oxy]ethanimidoyl}phenyl)-N-ethyl-N-methylimidoformamide] | 4.86 | 2.24 | ≥ 70 | 

From US8785692B2, “Substituted phenylamidines and the use thereof as fungicides” (priority 2007, dated 2014)
